# Values joined by “and” are separate entries in the source; they are usually repeats but may differ in a detail not shown here. Equal entries are not always repeated.
# Tested on: Swiss mice, Sarcoma 180 sc, mean tumor weight T/C
# Assay: NCI In Vivo Anticancer Drug Screen. Data for tumor model Sarcoma 180 (subcutaneous) in Swiss mice
# Settings: endpoint: mean tumor weight, higher = larger tumour
# Summary of the method: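 Readout is the ratio of treated-group measurement to vehicle-control measurement (T/C), based on survival or tumor size in mice carrying transplanted tumors.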
# [1] = dose: 15.0 mg/kg/injection, schedule: Q01DX007 (ip), vehicle: carboxymethylcellulose (CMC)
# [2] = dose: 30.0 mg/kg/injection, schedule: Q01DX007 (ip), vehicle: carboxymethylcellulose (CMC)
# [3] = dose: 60.0 mg/kg/injection, schedule: Q01DX007 (ip), vehicle: carboxymethylcellulose (CMC)
smiles,measurement,setting,value
CCCCCCCCCCCC1=C(O)C(=O)C(CC2=C(O)C(=O)C(CCCCCCCCCCC)=C(O)C2=O)=C(O)C1=O,T/C,"dose: 7.5 mg/kg/injection, schedule: Q01DX007 (ip), vehicle: carboxymethylcellulose (CMC)",110 % of control
same,T/C,[1],85 % of control
same,T/C,[2],50 % of control
same,T/C,[3],123 % of control
Cc1cc2c(c3oc(C4(C)OC4C4OC4C)cc(=O)c13)C(=O)c1c(O)c(C3CC(C)(N(C)C)C(O)C(C)O3)cc(C3CC(N(C)C)C(O)C(C)O3)c1C2=O (stereo not given),T/C,"dose: 0.05 mg/kg/injection, schedule: Q01DX007 (sc), vehicle: other",100 % of control
same,T/C,"dose: 0.1 mg/kg/injection, schedule: Q01DX007 (sc), vehicle: other",79 % of control
CC1(C)N=C(N)N=C(N)N1c1cccc(Cl)c1,T/C,"dose: 3.97 mg/kg/injection, schedule: Q01DX007 (ip), vehicle: carboxymethylcellulose (CMC)",83 % of control
same,T/C,"dose: 6.95 mg/kg/injection, schedule: Q01DX007 (ip), vehicle: carboxymethylcellulose (CMC)",85 % of control
same,T/C,"dose: 13.9 mg/kg/injection, schedule: Q01DX007 (ip), vehicle: carboxymethylcellulose (CMC)",68 % of control
same,T/C,"dose: 27.8 mg/kg/injection, schedule: Q01DX007 (ip), vehicle: carboxymethylcellulose (CMC)",74 % of control
CCCCCCCCCCCCCCCCNc1cccc2ccccc12,T/C,"dose: 111.0 mg/kg/injection, schedule: Q#A X014 (ip), vehicle: methylcellulose (MC)",64 % of control and 82 % of control
same,T/C,"dose: 166.5 mg/kg/injection, schedule: Q#A X014 (ip), vehicle: methylcellulose (MC)",49 % of control and 66 % of control
same,T/C,"dose: 250.0 mg/kg/injection, schedule: Q#A X014 (ip), vehicle: methylcellulose (MC)",41 % of control
O=P1(N(CCCl)CCCl)NCCCO1 (stereo not given),T/C,"dose: 12.5 mg/kg/injection, schedule: Q01DX007 (ip), vehicle: carboxymethylcellulose (CMC)",50 % of control and 55 % of control
same,T/C,[1],88 % of control
same,T/C,"dose: 23.88 mg/kg/injection, schedule: Q01DX007 (ip), vehicle: carboxymethylcellulose (CMC)",101 % of control
same,T/C,"dose: 25.0 mg/kg/injection, schedule: Q01DX007 (ip), vehicle: carboxymethylcellulose (CMC)",70 % of control
same,T/C,"dose: 29.85 mg/kg/injection, schedule: Q01DX007 (ip), vehicle: carboxymethylcellulose (CMC)",97 % of control
same,T/C,[2],25 % of control
same,T/C,"dose: 39.8 mg/kg/injection, schedule: Q01DX007 (ip), vehicle: carboxymethylcellulose (CMC)",72 % of control
same,T/C,"dose: 59.7 mg/kg/injection, schedule: Q01DX007 (ip), vehicle: carboxymethylcellulose (CMC)",34 % of control
same,T/C,[3],4 % of control
same,T/C,"dose: 80.0 mg/kg/injection, schedule: Q01DX007 (ip), vehicle: carboxymethylcellulose (CMC)",4 % of control
same,T/C,"dose: 746.25 mg/kg/injection, schedule: Q#A X014 (ip), vehicle: carboxymethylcellulose (CMC)",65 % of control
same,T/C,"dose: 1492.5 mg/kg/injection, schedule: Q#A X014 (ip), vehicle: carboxymethylcellulose (CMC)",45 % of control
same,T/C,"dose: 2985.0 mg/kg/injection, schedule: Q#A X014 (ip), vehicle: carboxymethylcellulose (CMC)",7 % of control
same,T/C,"dose: 3731.0 mg/kg/injection, schedule: Q#A X014 (ip), vehicle: carboxymethylcellulose (CMC)",67 % of control
[N-]=[N+]=CC(=O)NCC(=O)NN,T/C,"dose: 400.0 mg/kg/injection, schedule: Q01DX007 (ip), vehicle: water",45 % of control
same,T/C,"dose: 450.0 mg/kg/injection, schedule: Q01DX007 (ip), vehicle: other",43 % of control
same,T/C,"dose: 500.0 mg/kg/injection, schedule: Q01DX007 (ip), vehicle: other",50 % of control
same,T/C,"dose: 600.0 mg/kg/injection, schedule: Q01DX007 (ip), vehicle: water",34 % of control
COC(=O)c1cc([N+](=O)[O-])cc([N+](=O)[O-])c1Cl,T/C,"dose: 6.0 mg/kg/injection, schedule: Q01DX007 (ip), vehicle: methylcellulose (MC)",91 % of control
same,T/C,"dose: 12.0 mg/kg/injection, schedule: Q01DX007 (ip), vehicle: methylcellulose (MC)",111 % of control
same,T/C,"dose: 25.0 mg/kg/injection, schedule: Q01DX007 (ip), vehicle: methylcellulose (MC)",86 % of control
NC(=O)c1cn(C2OC(CO)C(O)C2O)c2ncnc(N)c12 (stereo not given),T/C,"dose: 0.5 mg/kg/injection, schedule: Q01DX007 (ip), vehicle: carboxymethylcellulose (CMC)",87 % of control

# From PubChem BioAssay AID342 (DTP/NCI, 2004)
